# “And” between values parts separate entries of the source, which are not always exact repeats. Identical values can stand only once.
# Key:
# [1] = Binding of CRA-1 to Amberlite IRP-69 cation exchange resin (HPLC of filtrate); type: physicochemical
# Protocol: CRA-1, which has the amino acid sequence Ac-Nle-Gln-His-(D)Phe-Arg-(D)Trp-Gly-NH2, was prepared as described in U.S. Pat. No. 5,420,109, where it is referred to as "EX-2." A 1 mg/ml solution of peptide CRA-1 was prepared by dissolving 19.7 mg CRA-1 in 19.7 ml PBS. Ten mg Amberlite® IRP-69 ("IRP-69") (Rohm and Haas) was added to 5 ml CRA-1 solution (5 mg CRA-1) to achieve a CRA-1:IRP-69 ratio of 1:2. The mixture was adjusted to pH 6.0 and stirred for 2 hr. The suspension then was filtered and the filtrate was analyzed by HPLC (see Example II.A) to determine the total amount of CRA-1 bound to IRP-69. Binding also was performed using CRA-1:IRP-69 ratios of 1:20 and 1:200.
# [2] = Binding of CRA-1 to Amberlite IRP-64 cation exchange resin (HPLC of filtrate); type: physicochemical
# Protocol: A 1 mg/ml CRA-1 solution was prepared by dissolving 42.5 mg CRA-1 in 42.5 ml PBS. Fifty mg Amberlite® IRP-64 ("IRP-64") (Rohm and Haas) was added to 5 ml CRA-1 solution (5 mg CRA-1) to achieve a peptide:resin ratio of 1:10. The mixture was adjusted to pH 6.0 and stirred for 1 hr. The suspension was filtered and the filtrate was analyzed by HPLC (see Example II.A) to determine the total amount of CRA-1 bound to IRP-64. Binding also was performed using CRA-1: IRP-64 ratios of 1:1, 1:2 and 1:20.
# trypsin [3] = molecular target: T1, trypsin (Bos taurus, UniProt P00760); experiment: Susceptibility of free peptide to enzymatic degradation by trypsin; type: in vitro ADME; details: 37° C.
# T1 construct: gene PRSS1
# T1 sequence (P00760 24-246): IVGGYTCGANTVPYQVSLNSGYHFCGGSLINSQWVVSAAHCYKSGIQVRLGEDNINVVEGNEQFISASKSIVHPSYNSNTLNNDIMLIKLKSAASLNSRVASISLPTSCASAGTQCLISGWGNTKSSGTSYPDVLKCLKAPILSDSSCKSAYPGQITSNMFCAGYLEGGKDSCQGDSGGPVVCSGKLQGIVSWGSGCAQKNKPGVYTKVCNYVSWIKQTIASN
# Protocol: (§1) Phosphate buffered saline (PBS) solutions were prepared and adjusted to pH 5.0, 7.0 or 8.0. CRA-1 was dissolved into each of the PBS solutions to a final concentration of 3 mg/ml. Samples of 3 mg/ml trypsin and 3 mg/ml chymotrypsin also were prepared in PBS at pH 5.0, 7.0 or 8.0.
# (§2) To examine the susceptibility of CRA-1 to trypsin and chymotrypsin, 1 ml CRA-1 solution at pH 5.0 was mixed with 1 ml trypsin solution at pH 5.0 and 1 ml PBS (pH 5.0) to obtain a final concentration of 1 mg/ml CRA-1 and 1 mg/ml trypsin. Similar assay samples were prepared to examine the stability of CPA-1 in trypsin at pH 7.0 or pH 8.0 and in chymotrypsin at pH 5.0, 7.0 or 8.0. As a control, an assay sample was prepared without trypsin or chymotrypsin.
# (§3) Immediately upon preparing an assay sample, 100 μl of the incubation mixture was removed and the reaction was terminated by adding 100 μl of a Stop solution (90% acetonitrile containing 0.1% trifluoroacetic acid). These samples were analyzed by HPLC to determine the amount of CRA-1 present in each sample at the initiation of the reaction.
# (§4) The remainder of each assay sample was incubated in an oven at 37° C. At selected times after beginning the incubation, a 100 μl aliquot was withdrawn, the reaction was terminated as described above. The samples were analyzed by HPLC to determine the amount of intact CRA-1.
# chymotrypsin [4] = molecular target: T2, chymotrypsin (Bos taurus, UniProt P00766); experiment: Susceptibility of free peptide to enzymatic degradation by chymotrypsin; type: in vitro ADME; details: 37° C.
# Protocol: as §1, §2, §3, §4
# trypsin [5] = molecular target: T1, trypsin; experiment: Stability of peptide-ion exchange resin complex to enzymatic degradation by trypsin; type: in vitro ADME; details: unbound control
# Protocol: (§5) Fifty mg or 100 mg of the complex was suspended in 5 ml of PBS (pH 7.0) containing either 1 mg/ml trypsin or 1 mg/ml chymotrypsin. The suspensions were rotated at 200 rpm in an incubator at 37° C. for 2 hr. Following incubation, the suspension was vacuum-filtered and the filtrate was analyzed by HPLC to determine the amount of CRA-1 bound to the IRP-64. […] After 1 hr, the suspension was vacuum-[…] ion exchange resin was washed and filtered a second time with 50 ml 2M KCl. The filtrate and wash were analyzed by HPLC to determine the amount of drug recovered from the ion exchange resin.
# trypsin [6] = system: T3, trypsin; experiment: as above; type: in vitro ADME; details: isolated enzyme trypsin, pH 7, unbound control, read-out: CRA-1 remaining
# T3 construct: gene PRSS1
# Protocol: as §5
# chymotrypsin [7] = molecular target: T2, chymotrypsin; experiment: Stability of peptide-ion exchange resin complex to enzymatic degradation by chymotrypsin; type: in vitro ADME; details: unbound control
# Protocol: as §5
# chymotrypsin [8] = experiment: as above; type: in vitro ADME; details: isolated enzyme chymotrypsin, pH 7, unbound control, read-out: CRA-1 remaining
# Protocol: as §5
compound,measurement,setting,value
"CCCC[C@H](NC(C)=O)C(=O)N[C@@H](CCC(N)=O)C(=O)N[C@@H](Cc1c[nH]cn1)C(=O)N[C@H](Cc1ccccc1)C(=O)N[C@@H](CCCNC(=N)N)C(=O)N[C@H](Cc1c[nH]c2ccccc12)C(=O)NCC(N)=O [CRA-1, Ac-Nle-Gln-His-(D)Phe-Arg-(D)Trp-Gly-NH2]",CRA-1 bound to ion exchange resin,"[1]; IRP-69, peptide:resin ratio 1:2, PBS pH 6.0, stirred 2 hr",66.91%
same,CRA-1 bound to ion exchange resin,"[1]; IRP-69, peptide:resin ratio 1:20, PBS pH 6.0, stirred 2 hr",99.63%
same,CRA-1 bound to ion exchange resin,"[1]; IRP-69, peptide:resin ratio 1:200, PBS pH 6.0, stirred 2 hr",99.5% and 99.52%
same,CRA-1 bound to ion exchange resin,"[2]; IRP-64, peptide:resin ratio 1:1, PBS pH 6.0, stirred 1 hr",10.48%
same,CRA-1 bound to ion exchange resin,"[2]; IRP-64, peptide:resin ratio 1:2, PBS pH 6.0, stirred 1 hr",20.08%
same,CRA-1 bound to ion exchange resin,"[2]; IRP-64, peptide:resin ratio 1:10, PBS pH 6.0, stirred 1 hr",97.55%
same,CRA-1 bound to ion exchange resin,"[2]; IRP-64, peptide:resin ratio 1:20, PBS pH 6.0, stirred 1 hr",98.97%
same,stability in the presence of trypsin,"trypsin [3]; pH 5.0, 1 mg/ml CRA-1, 1 mg/ml trypsin",stable
same,half-life of degradation by trypsin,"trypsin [3]; pH 7.0 or 8.0, 1 mg/ml CRA-1, 1 mg/ml trypsin",20 to 30 min
same,stability in the presence of chymotrypsin,"chymotrypsin [4]; pH 5.0, 1 mg/ml CRA-1, 1 mg/ml chymotrypsin",stable
same,half-life of degradation by chymotrypsin,"chymotrypsin [4]; pH 7.0 or 8.0, 1 mg/ml CRA-1, 1 mg/ml chymotrypsin",20 to 30 min
same,CRA-1 remaining,trypsin [5],almost completely degraded
same,remaining at 2 h,trypsin [6],2.96%
same,CRA-1 remaining,chymotrypsin [7],almost completely degraded
same,remaining at 2 h,chymotrypsin [8],5.47%
